Measurements reported in patent EP2041131B1, “AZAINDOLE DERIVATIVES WITH A COMBINATION OF PARTIAL NICOTINIC ACETYLCHOLINE RECEPTOR AGONISM AND DOPAMINE REUPTAKE INHIBITION” (Abbott Healthcare Products B.V., priority 2006, dated 2008).
Like-named read-outs stand apart in the source and are kept apart here.

Assays:
rat striatal slices = test: In vitro [^3H]-Dopamine release; format: cell-based
dopamine uptake sites = target: T1, dopamine uptake sites (Rattus norvegicus, UniProt P23977); test: In vitro [^3H]-Dopamine uptake in striatal synaptosomes; format: biochemical
T1 construct: the striatum was rapidly removed and a crude synaptosomal fraction (P2) was prepared; from tissue; host or cells: rat striatum, crude synaptosomal fraction (P2)
Experimental: Subsequently, [^3H]-dopamine (2x10^-7 M final concentration) was added and incubation was continued for 10 min. [^3H]-dopamine uptake was stopped by filtration and the synaptosomes were washed four times with phosphate buffered saline. The amount of [^3H]-dopamine in the synaptosomes was determined by Betaplate liquid scintillation counting. […] Inhibition of DA uptake was performed in duplicate.

[1] = rat striatal synaptosomes, 10^-9 to 10^-5 M, read-out: Functional activity re-uptake [^3H]-Dopamine pIC50 (converted)
[2] = K+ (10 mM) evoked release, rat striatal slices, compounds added at 10^-8 M and 10^-6 M, table does not say which concentration

T1 sequence (P23977 whole entry): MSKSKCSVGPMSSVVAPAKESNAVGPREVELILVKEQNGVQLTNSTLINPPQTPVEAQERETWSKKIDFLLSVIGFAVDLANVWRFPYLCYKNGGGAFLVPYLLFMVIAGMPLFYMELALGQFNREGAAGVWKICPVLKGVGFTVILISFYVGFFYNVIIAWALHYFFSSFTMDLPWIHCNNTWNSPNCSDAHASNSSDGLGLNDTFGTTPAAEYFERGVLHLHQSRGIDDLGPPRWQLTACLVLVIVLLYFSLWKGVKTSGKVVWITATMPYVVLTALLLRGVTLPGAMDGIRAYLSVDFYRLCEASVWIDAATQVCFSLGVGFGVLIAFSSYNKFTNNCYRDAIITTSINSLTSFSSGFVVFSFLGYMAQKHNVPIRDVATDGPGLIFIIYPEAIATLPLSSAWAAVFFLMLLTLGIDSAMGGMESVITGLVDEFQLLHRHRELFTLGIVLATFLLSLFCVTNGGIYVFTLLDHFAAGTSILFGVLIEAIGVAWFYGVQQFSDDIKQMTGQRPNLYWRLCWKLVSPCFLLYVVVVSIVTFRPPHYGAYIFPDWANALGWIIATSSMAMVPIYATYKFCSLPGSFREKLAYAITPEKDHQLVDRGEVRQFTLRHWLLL

| SMILES | Functional activity release [^3H]-Dopamine % of control (rat striatal slices) | IC50 (dopamine uptake sites; [1]) [µM] | Functional activity release [^3H]-Dopamine % of control (rat striatal slices; [2]) | IC50 (dopamine uptake sites) [µM] |
| --- | --- | --- | --- | --- |
| c1cnc2[nH]cc(C[C@H]3CCCN3)c2c1 (stereo in doubt) [Compound 96, (R)-3-pyrrolidin-2-ylmethyl-1H-pyrrolo-[2,3-b]pyridine, reference compound] | 124 % of control |  |  |  |
| CN1CCC[C@@H]1Cc1c[nH]c2ncccc12 (stereo in doubt) [Compound 98, reference compound] |  | > 10 | 132 % of control |  |
| CN1CCC[C@H]1Cc1c[nH]c2ncccc12 (stereo in doubt) [Compound 99, reference compound] |  |  | 112 % of control |  |
| c1cnc2[nH]cc(C3CCCNC3)c2c1 (centres unmarked) [Compound 6, 3-piperidin-3-yl-1 H-pyrrolo[2,3-b]pyridine] |  |  | 139 % of control | 3.98 |
| Clc1ccc2c(C3CCCNC3)c[nH]c2n1 (centres unmarked) [Compound 13, 6-chloro-3-piperidin-3-yl-1 H-pyrrolo[2,3-b]pyridine] |  | 1.58 | 174 % of control |  |
| c1cnc2[nH]c([C@H]3CCCNC3)cc2c1 [Compound 26A, (S)-2-piperidin-3-yl-1H-pyrrolo[2,3-b]pyridine] |  | 2.51 | 139 % of control |  |
| c1cnc2[nH]c([C@@H]3CCCNC3)cc2c1 [Compound 26B, (R)-2-piperidin-3-yl-1H-pyrrolo[2,3-b]pyridine] |  |  | 121 % of control | 0.631 |
| Clc1ccc2cc(C3CCCNC3)[nH]c2n1 (centres unmarked) [Compound 32, 6-chloro-2-piperidin-3-yl-1H-pyrrolo[2,3-b]pyridine] |  |  | 173 % of control |  |
| Clc1ccc2cc([C@@H]3CCCNC3)[nH]c2n1 [Compound 32B, (R)-6-chloro-2-piperidin-3-yl-1H-pyrrolo[2,3-b]pyridine] |  |  | 170 % of control | 0.398 |
| c1cnc2[nH]c(C[C@H]3CCCN3)cc2c1 [Compound 39A, (R)-2-pyrrolidin-2-ylmethyl-1H-pyrrolo[2,3-b]pyridine] | 151 % of control |  |  |  |
| c1cnc2[nH]c(C[C@@H]3CCCN3)cc2c1 [Compound 39B, (S)-2-pyrrolidin-2-ylmethyl-1H-pyrrolo[2,3-b]pyridine] |  |  | 133 % of control |  |
| CN1CCC[C@@H]1Cc1cc2cccnc2[nH]1 [Compound 41A, (R)-2-(1-Methyl-pyrrolidin-2-ylmethyl)-1H-pyrrolo[2,3-b]pyridine] |  |  | 100 % of control |  |
| Clc1ccc2cc(C[C@H]3CCCN3)[nH]c2n1 [Compound 45A, (R)-6-chloro-2-pyrrolidin-2-ylmethyl-1H-pyrrolo[2,3-b]pyridine] |  |  | 115 % of control |  |
| Clc1ccc2cc(C[C@@H]3CCCN3)[nH]c2n1 [Compound 45B, (S)-6-chloro-2-pyrrolidin-2-ylmethyl-1H-pyrrolo[2,3-b]pyridine] |  | 2.51 | 153 % of control |  |
| Brc1ccc2cc(C[C@H]3CCCN3)[nH]c2n1 [Compound 46A, (R)-6-bromo-2-pyrrolidin-2-ylmethyl-1H-pyrrolo[2,3-b]pyridine] |  |  | 92 % of control |  |
| Brc1ccc2cc(C[C@@H]3CCCN3)[nH]c2n1 [Compound 46B, (S)-6-bromo-2-pyrrolidin-2-ylmethyl-1H-pyrrolo[2,3-b]pyridine] |  |  | 123 % of control |  |

| SMILES | Functional activity release [^3H]-Dopamine % of control (rat striatal slices) | IC50 (dopamine uptake sites; [1]) [µM] | Functional activity release [^3H]-Dopamine % of control (rat striatal slices; [2]) | IC50 (dopamine uptake sites) [µM] |
| --- | --- | --- | --- | --- |
| Fc1ccc2cc(C[C@H]3CCCN3)[nH]c2n1 [Compound 47A, (R)-6-fluoro-2-pyrrolidin-2-ylmethyl-1H-pyrrolo[2,3-b]pyridine] |  |  | 137 % of control |  |
| Fc1ccc2cc(C[C@@H]3CCCN3)[nH]c2n1 [Compound 47B, (S)-6-fluoro-2-pyrrolidin-2-ylmethyl-1H-pyrrolo[2,3-b]pyridine] |  | 3.98 | 128 % of control |  |
| COc1ccc2cc(C[C@H]3CCCN3)[nH]c2n1 [Compound 49, (R)-6-methoxy-2-pyrrolidin-2-ylmethyl-1H-pyrrolo[2,3-b]pyridine] | 160 % of control |  |  |  |
| Brc1cnc2[nH]c(C[C@H]3CCCN3)cc2c1 [Compound 52A, (R)-5-bromo-2-pyrrolidin-2-ylmethyl-1H-pyrrolo[2,3-b]pyridine] | 135 % of control |  |  |  |
| c1cnc2[nH]c(C3CCNC3)cc2c1 (centres unmarked) [Compound 78, 2-pyrrolidin-3-yl-1H-pyrrolo[2,3-b]pyridine] |  | 2 | 154 % of control |  |
| c1cnc2[nH]c([C@H]3CCNC3)cc2c1 [Compound 78A, (S)-2-pyrrolidin-3-yl-1H-pyrrolo[2,3-b]pyridine] |  | 3.98 | 109 % of control |  |
| c1cnc2[nH]c([C@@H]3CCNC3)cc2c1 [Compound 78B, (R)-2-pyrrolidin-3-yl-1H-pyrrolo[2,3-b]pyridine] |  | 1.58 | 187 % of control |  |
| c1cnc2cc(C3CCNC3)[nH]c2c1 (centres unmarked) [Compound 79, 2-pyrrolidin-3-yl-1H-pyrrolo[3,2-b]pyridine] |  | 6.31 | 119 % of control |  |
| c1cnc2cc(C[C@H]3CCCN3)[nH]c2c1 [Compound 81A, (R)-2-pyrrolidin-2-ylmethyl-1H-pyrrolo[3,2-b]pyridine] | 153 % of control |  |  |  |
| c1cnc2cc(C[C@@H]3CCCN3)[nH]c2c1 [Compound 81B, (S)-2-pyrrolidin-2-ylmethyl-1H-pyrrolo[3,2-b]pyridine] | 120 % of control |  |  |  |
| COc1ccc2[nH]c(C[C@H]3CCCN3)cc2n1 [Compound 85, (R)-5-methoxy-2-pyrrolidin-2-ylmethyl-1H-pyrrolo[3,2-b]pyridine] | 131 % of control |  |  |  |
| c1cnc2c(C[C@H]3CCCN3)c[nH]c2c1 [Compound 88, (R)-3-pyrrolidin-2-ylmethyl-1H-pyrrolo[3,2-b]pyridine] |  | 7.94 | 110 % of control |  |
| CC(NC(C)(C)C)C(=O)c1cccc(Cl)c1 (centres unmarked) [bupropion, reference compound] |  | 3.98 | 124 % of control |  |
| O=c1cccc2n1C[C@@H]1CNC[C@H]2C1 [cytisine, reference compound] |  |  | 136 % of control | > 10 |
| CN1CCCC1c1cccnc1 (centres unmarked) [nicotine, reference compound] |  |  | 180 % of control | > 10 |
